Measured values reported in patent US9284312B2, “N-methyl tetrahydroquinoline M1 receptor positive allosteric modulators” (Merck Sharp & Dohme Corp., priority 2011, dated 2016).
pEC50: −log10 of the molar value.

Target: T1, acetylcholine muscarinic M1 receptor (Homo sapiens, UniProt P11229)
T1 construct: expressed in transfected cells; host or cells: CHOnfat (CHO cells, Geneticin-selected) expressing hM1
T1 sequence (P11229 1-460): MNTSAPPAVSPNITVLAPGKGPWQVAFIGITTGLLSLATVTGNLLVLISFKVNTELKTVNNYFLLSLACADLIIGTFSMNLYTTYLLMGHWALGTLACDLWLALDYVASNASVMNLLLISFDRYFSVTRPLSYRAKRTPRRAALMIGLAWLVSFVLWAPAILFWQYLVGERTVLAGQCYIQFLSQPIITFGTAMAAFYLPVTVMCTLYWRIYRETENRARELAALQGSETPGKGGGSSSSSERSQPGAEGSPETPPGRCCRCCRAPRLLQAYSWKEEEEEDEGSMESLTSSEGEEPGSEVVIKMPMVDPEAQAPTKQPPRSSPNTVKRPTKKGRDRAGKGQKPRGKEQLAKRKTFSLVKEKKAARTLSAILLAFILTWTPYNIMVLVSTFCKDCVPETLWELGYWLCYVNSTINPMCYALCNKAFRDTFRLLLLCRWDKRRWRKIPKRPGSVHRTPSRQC
Test: muscarinic FLIPR assay: intracellular calcium in CHOnfat/hM1 cells with EC20 acetylcholine (positive allosteric modulation)
Type: cell-based
Details: not given
Description: The assay studies the effect of one or several concentrations of test compounds on basal or acetylcholine-stimulated Ca^2+ levels using FLIPR.
Compounds are prepared and subjected to a preincubation period of 4 min. Thereafter, a single EC20 concentration of acetylcholine is added to each well (3 nM final). The intracellular Ca^2+ level of each sample is measured and compared to an acetylcholine control to determine any modulatory activity.
Cells: CHOnfat/hM1, hM2, hM3 or hM4 cells are plated 24 hr before the assay at a density of 18,000 cells/well (100 μL) in a 384 well plate. CHOnfat/hM1 and CHOnfat/hM3 Growth Medium: 90% DMEM (Hi Glucose); 10% HI FBS; 2 mM L-glutamine; 0.1 mM NEAA; Pen-Strep; and 1 mg/ml Geneticin, are added. For M2Gqi5CHOnfat and M4Gqi5CHOnfat cells, an additional 600 ug/ml hygromycin is added.
Equipment: 384 well plate, 120 μL addition plate; 96-well Whatman 2 ml Uniplate Incubator, 37° C., 5% CO2; Skatron EMBLA-384 Plate Washer; Multimek Pipetting System; Genesis Freedom 200 System; Mosquito System; Temo Nanoliter Pipetting System; and FLIPR^384 Fluorometric Imaging Plate Reader System are used.
Buffers. Assay Buffer: Hanks Balanced Salt Solution, with 20 mM Hepes, 2.5 mM Probenecid (Sigma P-8761) first dissolved in 1 N NaOH, 1% Bovine Serum Albumin (Sigma A-9647). Dye Loading Buffer: Assay Buffer plus 1% Fetal Bovine Serum and Fluo-4AM/Pluronic Acid Mixture. 2 mM Fluo-4AM ester stock in DMSO (Molecular Probes F-14202) Concentration of 2 μM in buffer for a final concentration of […] in Assay. 20% Pluronic Acid Solution stock, with concentration of 0.04% in Buffer, 0.02% in Assay.
65 μL of 2 mM Fluo-4AM are mixed with 130 μL of 20% Pluronic Acid. The resulting solution and 650 μL FBS is added to the assay buffer for a total volume of 65 mL. Positive Controls: 4-Br-A23187: 10 mM in DMSO; final concentration 10 μM. Acetylcholine: 10 mM in water, working stock at both 20 μM and 30 μM in assay buffer, final concentration of 10 μM. This is used to check the maximum stimulation of the CHOK1/hM1 cells. 20 μM (2×) acetylcholine is added in the preincubation part of the assay, and the 30 μM (3×) stock is added in the second part. (EC20)Acetylcholine: 10 mM in water, working stock of 9 nM (3×), and final concentration in assay is 3 nM. This is used after the preincubation with test compounds. Addition of the EC20 Acetylcholine to each well with a test compound will ascertain any modulator activity. 24 wells contain 3 nM Acetylcholine alone as a control.
Determining Activity of Putative Compounds:
Screening Plate: Compounds are titrated in 96-well plates (columns 2-11), 100% DMSO, started at a concentration of 15 mM (150× stock concentration), and 3-fold serial dilutions using Genesis Freedom200 System. Four 96-well plates are combined into a 384-well plate using Mosquito Nanoliter Pipetting System by transferring 1 μl of serial diluted compounds to each well, and 1 mM acetylcholine (100× stock concentration) were added as a control. Using Temo, 49 μl assay buffer is added to each well of the 384-well plate right before assay.
In a 96-well Whatman 2 ml Uniplate, 9 nM Acetylcholine (3×) is pipetted into wells corresponding to the screening compounds, and into control wells. The 30 μM acetylcholine control (3×) is added into control wells, and the 3× agonist plate is transferred into a 384 well plate.
Cells are washed three times with 100 μL of buffer, leaving 30 μL of buffer in each well. Using Multimek, 30 μL of Dye Loading Buffer is added into each well and incubated at 37° C., 5% CO2 for up to one hr.
After 60 min, the cells are washed three times with 100 μL of buffer, leaving 30 μL of buffer in each well. The cell plate, screening plate, and agonist addition plates are placed on the platform in the FLIPR and the door closed. A signal test to check background fluorescence and basal fluorescence signal is performed. Laser intensity is adjusted if necessary. […]

| Compound | pEC50 |
| --- | --- |
| CN(C)C(=O)Oc1ccc(Cc2cc3c(=O)n([C@H]4CCCC[C@@H]4O)cnc3c3c2C=CCN3C)cc1 [Example 8, 4-({3-[(1S,2S)-2-Hydroxycyclohexyl]-10-methyl-4-oxo-3,4,9,10-tetrahydropyrido[3,2-h]quinazolin-6-yl}methyl)phenyl dimethylcarbamate] | 7.60 |

Same assay, conditions: CHOnfat/hM1 cells, FLIPR Ca2+, 4 min preincubation, then EC20 acetylcholine (3 nM final); read-out: IP Value (inflection point)

| pEC50 | Compound |
| --- | --- |
| 8.28 | COc1cc(Cc2cc3c(=O)n([C@H]4CCCC[C@@H]4O)cnc3c3c2C=CCN3C)ccn1 [Example 9, 3-[(1S,2S)-2-Hydroxycyclohexyl]-6-[(2-methoxypyridin-4-yl)methyl]-10-methyl-9,10-dihydropyrido[3,2-h]quinazolin-4(3H)-one] |
| 7.85 | COc1ccc(Cc2cc3c(=O)n([C@H]4CCCC[C@@H]4O)cnc3c3c2C=CCN3C)cn1 [Example 4, 3-[(1S,2S)-2-Hydroxycyclohexyl]-6-[(6-methoxypyridin-3-yl)methyl]-10-methyl-9,10-dihydropyrido[3,2-h]quinazolin-4(3H)-one] |
| 8.52 | CN1CC=Cc2c(Cc3ccc(Cl)nc3)cc3c(=O)n([C@H]4CCCC[C@@H]4O)cnc3c21 [Example 1, 6-[(6-Chloropyridin-3-yl)methyl]-3-[(1S,2S)-2-hydroxycyclohexyl]-10-methyl-9,10-dihydropyrido[3,2-h]quinazolin-4(3H)-one] |
| 8.37 | CN1CC=Cc2c(Cc3ccc(Cl)nc3)cc3c(=O)n([C@H]4CCOC[C@@H]4O)cnc3c21 [Example 2, 6-[(6-Chloropyridin-3-yl)methyl]-3-[(3R,4S)-3-hydroxytetrahydro-2H-pyran-4-yl]-10-methyl-9,10-dihydropyrido[3,2-h]quinazolin-4(3H)-one] |
| 8.59 | CN1CC=Cc2c(Cc3ccc(O)cc3)cc3c(=O)n([C@H]4CCCC[C@@H]4O)cnc3c21 [Example 7, 6-(4-Hydroxybenzyl)-3-[(1S,2S)-2-hydroxycyclohexyl]-10-methyl-9,10-dihydropyrido[3,2-h]quinazolin-4(3H)-one] |
| 7.68 | CN1CC=Cc2c(Cc3cccnc3)cc3c(=O)n([C@H]4CCCC[C@@H]4O)cnc3c21 [Example 5, 3-[(1S,2S)-2-Hydroxycyclohexyl]-10-methyl-6-(pyridine-3-ylmethyl)-9,10-dihydropyrido[3,2-h]quinazolin-4(3H)-one] |
| 8.38 | CSc1ccc(Cc2cc3c(=O)n([C@H]4CCCC[C@@H]4O)cnc3c3c2C=CCN3C)cn1 [Example 3, 3-[(1S,2S)-2-Hydroxycyclohexyl]-10-methyl-6-{[-(methylthio)-pyridin-3-yl]methyl}-9,10-dihydropyrido[3,2-h]quinazolin-4(3H)-one] |
| 8.59 | CN1CC=Cc2c(Cc3ccc(-c4cnn(C)c4)nc3)cc3c(=O)n([C@H]4CCCC[C@@H]4O)cnc3c21 [Example 6, 3-[(1S,2S)-2-Hydroxycyclohexyl]-10-methyl-6-{[6-(1-methyl-1H-pyrazol-4-yl)pyridin-3-yl]methyl}-9,10-dihydropyrido[3,2-h]quinazolin-4(3H)-one] |

Same assay, conditions: column head 'H Pot.' of the untitled table after Table 1; no unit or method printed; read-out: H Pot.

| pEC50 | Compound |
| --- | --- |
| 6.58 | CCN1CC=Cc2c(Cc3ccc(Cl)nc3)cc3c(=O)n([C@H]4CCCC[C@@H]4O)cnc3c21 [Example 46] |
